Assay results taken from patent publication US20260308172A1, “TRICYCLIC COMPOUNDS FOR TREATMENT OF BACTERIAL INFECTIONS” (priority 2023, published 2026).
≈ marks a conversion by molar mass, not a printed value.

What was measured:
[1] = tested on: Escherichia coli ATCC 25922; assay: Minimal Inhibitory Concentration (MIC) assay, Escherichia coli ATCC 25922; assay type: cell-based; details: ATCC25922, 20 h, read-out: MIC Escherichia coli ATCC25922
Procedure: (§1) The antibacterial activity of the compounds of the present invention was evaluated against the commonly used quality control strain Escherichia coli ATCC 25922 and the rifampin-resistant mutant strain Klebsiella pneumonia ATCC 43816. Both were originally derived from human clinical samples and are available from ATCC (American Type Culture Collection). The in vitro potency of compounds to inhibit Escherichia coli (ATCC 25922) and Klebsiella pneumonia (ATCC 43816) growth was assessed by the MIC (Minimal Inhibitory Concentration) broth dilution method. Specifically compound dilutions were prepared from 10 mM DMSO stock solutions as follows: i) serial 2-fold dilution in 20 μL DMSO were prepared in a master plate (Greiner, Cat No: 651201), ii) 180 μL sterile distilled water was added to each aliquot and iii) 10 μL diluted compounds were transferred into a new assay plate (Costar, 3599).
(§2) Vials of each test microorganisms were maintained frozen in the vapor phase of a liquid nitrogen freezer. Single-use frozen vials of the two strains Escherichia coli ATCC 25922 (KWIKSTIK, 0335K) and Klebsiella pneumonia ATCC 43816, with predetermined CFU/mL, were taken out from the freezer, thawed at room temperature, and diluted in Cation-Adjusted Mueller Hinton Broth (CAMHB) to achieve a final inoculum of 5×10^5 CFU/mL. 90 μL bacteria containing broth was dispensed to the assay plate containing the pre-dispensed compound dilutions and mixed by pipetting 5 times.
(§3) Then the assay plates were incubated for 20 hours at 35° C. in ambient air. Following incubation, the MIC (μg/mL), the lowest concentration of drug that inhibits visible growth of the microorganism was read with the help of a magnification mirror and recorded.

[2] = tested on: Klebsiella pneumonia ATCC 43816; assay: Minimal Inhibitory Concentration (MIC) assay, Klebsiella pneumonia ATCC 43816; assay type: cell-based; details: Klebsiella pneumoniae, ATCC43816, 20 h, read-out: MIC Klebsiella pneumoniae ATCC43816
Procedure: as §1, §2, §3

[3] = Human Microsome Stability Assay; assay type: in vitro ADME; details: 1 μM compound, 0.5 mg/mL liver microsomal protein, 1 mM NADPH, pH 7.4, 37° C., 0-30 minutes; for CLint scaled at 1 µM: human, liver microsomes, read-out: Clearance of Human microsome
Procedure: The human microsomal stability assay is used for early assessment of metabolic stability of compounds of present invention in human liver microsomes. Human liver microsomes (Cat. NO.: 452117, Corning, USA) were pre-incubated with test compound for 10 minutes at 37° C. in 100 mM potassium phosphate buffer, pH 7.4. The reactions were initiated by adding NADPH regenerating system. The final incubation mixtures contained 1 μM compound, 0.5 mg/mL liver microsomal protein, 1 mM MgCl2 and 1 mM NADPH in 100 mM potassium phosphate buffer, pH 7.4. After incubation times of 0, 3, 6, 9, 15 and 30 minutes at 37° C., 300 μL of cold acetonitrile (including internal standard) was added to 100 μL incubation mixture to terminate the reaction. Following precipitation and centrifugation, the amount of compound remaining in the samples were determined by LC-MS/MS. Controls of no NADPH regenerating system at zero and 30 minutes were also prepared and analyzed.

SMILES: NC1CCC(Oc2cc(Cl)nc(N3CCN(S(=O)(=O)c4ccc5c(c4)OCC4C(N)CC(=O)N54)CC3)c2)CC1 (centres unmarked) [Example 043, 3-Amino-7-[4-[4-(4-aminocyclohexoxy)-6-chloro-2-pyridyl]piperazin-1-yl]sulfonyl-2,3,3a,4-tetrahydropyrrolo[2,1-c][1,4]benzoxazin-1-one]
- MIC [1]: 4.3 µg/mL (≈ 7.45 µM)
- MIC [2]: 8.64 µg/mL (≈ 15 µM)
- Clearance of Human microsome [3]: 6.2 mL/min/kg

SMILES: NC1CCC(Oc2cc(Cl)nc(N3CCN(S(=O)(=O)c4ccc5c(c4)OC[C@@H]4[C@H](CO)OC(=O)N54)CC3)c2)CC1 (stereo partly drawn) [Example 042, (3R,3aR)-7-[4-[4-(4-aminocyclohexoxy)-6-chloro-2-pyridyl]piperazin-1-yl]sulfonyl-3-(hydroxymethyl)-3a,4-dihydro-3H-oxazolo[4,3-c][1,4]benzoxazin-1-one]
- MIC [1]: 2.2 µg/mL (≈ 3.7 µM)
- MIC [2]: 2.21 µg/mL (≈ 3.72 µM)
- CLint scaled at 1 µM [3]: 6.7 mL/min/kg

SMILES: Cc1cc(C(F)(F)F)nc(N2CCN(S(=O)(=O)c3ccc4c(c3)OC[C@H]3[C@@H](CN)OC(=O)N43)CC2)n1 (relative stereo) [Example 006]
- MIC [1]: 0.44 µg/mL (≈ 0.833 µM)
- MIC [2]: 0.88 µg/mL (≈ 1.67 µM)
- CLint scaled at 1 µM [3]: 12.5 mL/min/kg

SMILES: Cc1cc(C(F)(F)F)nc(N2CCN(S(=O)(=O)c3ccc4c(c3)OC[C@H]3[C@H](CN)OC(=O)N43)CC2)n1 (relative stereo) [Example 002]
- MIC [1]: 0.66 µg/mL (≈ 1.25 µM)
- MIC [2]: 1.32 µg/mL (≈ 2.5 µM)
- CLint scaled at 1 µM [3]: 10 mL/min/kg

SMILES: C[N@@+]1(CC(N)=O)CCC[C@H]1C(=O)N[C@H]1CC[C@H](C(F)(F)c2cc(Cl)nc(N3CCN(S(=O)(=O)c4ccc5c(c4)OC[C@@H]4[C@H](CN)OC(=O)N54)CC3)c2)CC1 [Example 060, (1S,2S)—N-[4-[[2-[4-[[(3S,3aR)-3-(aminomethyl)-1-oxo-3a,4-dihydro-3H-oxazolo[4,3-c][1,4]benzoxazin-7-yl]sulfonyl]piperazin-1-yl]-6-chloro-4-pyridyl]-difluoro-methyl]cyclohexyl]-1-(2-amino-2-oxo-ethyl)-1-methyl-pyrrolidin-1-ium-2-carboxamide; chloride]
- MIC [1]: 0.51 µg/mL
- MIC [2]: 0.51 µg/mL
- Clearance of Human microsome [3]: 6.2 mL/min/kg

SMILES: NCCN(CCN)CC(=O)N1CCC(C(F)(F)c2cc(Cl)nc(N3CCN(S(=O)(=O)c4ccc5c(c4)OC[C@@H]4[C@H](CO)OC(=O)N54)CC3)c2)CC1 [Example 052, (3R,3aR)-7-[4-[4-[[1-[2-[bis(2-aminoethyl)amino]acetyl]-4-piperidyl]-difluoro-methyl]-6-chloro-2-pyridyl]piperazin-1-yl]sulfonyl-3-(hydroxymethyl)-3a,4-dihydro-3H-oxazolo[4,3-c][1,4]benzoxazin-1-one]
- MIC [1]: 0.68 µg/mL (≈ 0.898 µM)
- MIC [2]: 1.36 µg/mL (≈ 1.8 µM)
- CLint scaled at 1 µM [3]: 6.4 mL/min/kg

SMILES: Cc1cc(C(F)(F)F)nc(N2CCN(S(=O)(=O)c3ccc4c(c3)OC[C@H]3[C@@H](CN5CC(CN)C5)OC(=O)N43)CC2)n1 [Example 026, (3R,3aS)-3-[[3-(aminomethyl)azetidin-1-yl]methyl]-7-[4-[4-methyl-6-(trifluoromethyl)pyrimidin-2-yl]piperazin-1-yl]sulfonyl-3a,4-dihydro-3H-oxazolo[4,3-c][1,4]benzoxazin-1-one]
- MIC [1]: 1.1 µg/mL (≈ 1.84 µM)
- MIC [2]: 1.67 µg/mL (≈ 2.79 µM)
- CLint scaled at 1 µM [3]: 10.8 mL/min/kg

SMILES: O=C1O[C@H](CO)[C@@H]2COc3cc(S(=O)(=O)N4CCN(c5cc(C(F)(F)C6CCNCC6)cc(Cl)n5)CC4)ccc3N12 [Example 029, (3S,3aS)-7-[4-[6-chloro-4-[difluoro(4-piperidyl)methyl]-2-pyridyl]piperazin-1-yl]sulfonyl-3-(hydroxymethyl)-3a,4-dihydro-3H-oxazolo[4,3-c][1,4]benzoxazin-1-one]
- MIC [1]: 1.1 µg/mL (≈ 1.79 µM)
- MIC [2]: 1.14 µg/mL (≈ 1.85 µM)
- CLint scaled at 1 µM [3]: 11.6 mL/min/kg

SMILES: NCC[N+]1(CCNC(=O)[C@H]2CC[C@H](C(F)(F)c3cc(Cl)nc(N4CCN(S(=O)(=O)c5ccc6c(c5)OC[C@H]5[C@H](CO)OC(=O)N65)CC4)c3)CC2)CCCC1.[Cl-] [Example 064, 4-[[2-[4-[[(3R,3aS)-3-(hydroxymethyl)-1-oxo-3a,4-dihydro-3H-oxazolo[4,3-c][1,4]benzoxazin-7-yl]sulfonyl]piperazin-1-yl]-6-chloro-4-pyridyl]-difluoro-methyl]-N-[2-[1-(2-aminoethyl)pyrrolidin-1-ium-1-yl]ethyl]cyclohexanecarboxamide; chloride]
- MIC [1]: 2.8 µg/mL
- MIC [2]: 2.85 µg/mL

SMILES: C[N@+]1(CC(N)=O)CCC[C@H]1C(=O)N[C@H]1CC[C@H](C(F)(F)c2cc(Cl)nc(N3CCN(S(=O)(=O)c4ccc5c(c4)OC[C@@H]4[C@H](CO)OC(=O)N54)CC3)c2)CC1 [Example 059, (1R,2S)—N-[4-[[2-[4-[[(3R,3aR)-3-(hydroxymethyl)-1-oxo-3a,4-dihydro-3H-oxazolo[4,3-c][1,4]benzoxazin-7-yl]sulfonyl]piperazin-1-yl]-6-chloro-4-pyridyl]-difluoro-methyl]cyclohexyl]-1-(2-amino-2-oxo-ethyl)-1-methyl-pyrrolidin-1-ium-2-carboxamide;chloride]
- MIC [1]: 0.66 µg/mL
- MIC [2]: 0.66 µg/mL

SMILES: Cc1cc(C(F)(F)F)nc(N2CCN(S(=O)(=O)c3ccc4c(c3)OCC3CCC(=O)N43)CC2)n1 (centres unmarked) [Example 011, 7-[4-[4-Methyl-6-(trifluoromethyl)pyrimidin-2-yl]piperazin-1-yl]sulfonyl-2,3,3a,4-tetrahydropyrrolo[2,1-c][1,4]benzoxazin-1-one]
- MIC [1]: 1.4 µg/mL (≈ 2.81 µM)
- MIC [2]: 2.87 µg/mL (≈ 5.77 µM)

SMILES: NC[C@@H]1OC(=O)N2c3ccc(S(=O)(=O)N4CCN(c5cc(C(F)(F)C6C7COCC76)cc(Cl)n5)CC4)cc3OC[C@@H]12 (relative stereo) [Example 018]
- MIC [1]: 0.28 µg/mL (≈ 0.457 µM)
- MIC [2]: 0.28 µg/mL (≈ 0.457 µM)

SMILES: NC[C@@H]1OC(=O)N2c3ccc(S(=O)(=O)N4CCN(c5cc(C(F)(F)F)cc(Cl)n5)CC4)cc3OC[C@@H]12 (relative stereo) [Example 001]
- MIC [1]: 0.46 µg/mL (≈ 0.84 µM)
- MIC [2]: 0.46 µg/mL (≈ 0.84 µM)

SMILES: CC(N)C(=O)N1CC(C(F)(F)c2cc(Cl)nc(N3CCN(S(=O)(=O)c4ccc5c(c4)OC[C@@H]4[C@H](CO)OC(=O)N54)CC3)c2)C1 (stereo partly drawn) [Example 041, (3R,3aR)-7-[4-[4-[[1-(2-aminopropanoyl)azetidin-3-yl]-difluoro-methyl]-6-chloro-2-pyridyl]piperazin-1-yl]sulfonyl-3-(hydroxymethyl)-3a,4-dihydro-3H-oxazolo[4,3-c][1,4]benzoxazin-1-one]
- MIC [1]: 2.4 µg/mL (≈ 3.65 µM)
- MIC [2]: 2.4 µg/mL (≈ 3.65 µM)

SMILES: O=C1CC(NC2CCNCC2)C2COc3cc(S(=O)(=O)N4CCN(c5cc(C(F)(F)[C@@H]6COCCO6)cc(Cl)n5)CC4)ccc3N12 (mixture of isomers) [Example 027, 7-[4-[6-Chloro-4-[difluoro-[rac-(2S)-1,4-dioxan-2-yl]methyl]-2-pyridyl]piperazin-1-yl]sulfonyl-3-(4-piperidylamino)-2,3,3a,4-tetrahydropyrrolo[2,1-c][1,4]benzoxazin-1-one]
- MIC [1]: 2.1 µg/mL (≈ 3.07 µM)
- MIC [2]: 2.14 µg/mL (≈ 3.13 µM)

SMILES: NC[C@H]1OC(=O)N2c3ccc(S(=O)(=O)N4CCN(c5cc(C(F)(F)[C@@H]6COCCO6)cc(Cl)n5)CC4)cc3OC[C@@H]12 [Example 021, (3R,3aS)-3-(Aminomethyl)-7-[4-[6-chloro-4-[[(2S)-1,4-dioxan-2-yl]-difluoro-methyl]-2-pyridyl]piperazin-1-yl]sulfonyl-3a,4-dihydro-3H-oxazolo[4,3-c][1,4]benzoxazin-1-one]
- MIC [1]: 0.26 µg/mL (≈ 0.422 µM)
- MIC [2]: 0.51 µg/mL (≈ 0.828 µM)

SMILES: NC1CC(=O)N2c3ccc(S(=O)(=O)N4CCN(c5cc(C(F)(F)[C@H]6CNCCO6)cc(Cl)n5)CC4)cc3OCC12 (stereo partly drawn) [Example 031, 3-Amino-7-[4-[6-chloro-4-[difluoro-[(2R)-morpholin-2-yl]methyl]-2-pyridyl]piperazin-1-yl]sulfonyl-2,3,3a,4-tetrahydropyrrolo[2,1-c][1,4]benzoxazin-1-one]
- MIC [1]: 0.25 µg/mL (≈ 0.417 µM)
- MIC [2]: 1.01 µg/mL (≈ 1.68 µM)

SMILES: CN1CCC(C(F)(F)c2cc(Cl)nc(N3CCN(S(=O)(=O)c4ccc5c(c4)OC[C@H]4[C@@H](CN)OC(=O)N54)CC3)c2)CC1 (stereo in doubt) [Example 010, cis-3-(aminomethyl)-7-[4-[6-chloro-4-[difluoro-(1-methyl-4-piperidyl)methyl]-2-pyridyl]piperazin-1-yl]sulfonyl-3a,4-dihydro-3H-oxazolo[4,3-c][1,4]benzoxazin-1-one]
- MIC [1]: 0.98 µg/mL (≈ 1.56 µM)
- MIC [2]: 0.98 µg/mL (≈ 1.56 µM)
